Like-named read-outs stand apart in the source and are kept apart here.
What was measured:
[1] = set-up: method as in Boosman et al., 2022; settings: ref Boosman et al., 2022; cited from earlier work
CYP3A4 = test system: CYP3A4; set-up: method as in Liu et al., 2020; settings: ref Liu et al., 2020, cited from earlier work
[2] = Drug interaction study: pharmacokinetics of firmonertinib and AST-5902 in rats with or without nirmatrelvir and ritonavir (paxlovid); type: in vivo, Sprague-Dawley (SD) rats; settings: for AUC(0-inf) / AUC(0-t) / Cmax / Tmax / half-life / CL/F / MRT last / MRT inf / Vd/F: male, Sprague-Dawley, rat, plasma, po, 7.2 mg/kg, rat plasma; for CL/F: read-out: CLz/F (converted); for MRT last: read-out: MRT(0-t); for MRT inf: read-out: MRT(0-∞); for Vd/F: read-out: Vz/F; for Difference in main pharmacokinetic data between single-dose and long-term nirmatrelvir and ritonavir groups: P > 0.05
Description: The experimental animals for pharmacokinetics were eighteen male Sprague-Dawley (SD) rats (6–8 weeks old), weighing 180–220 g, purchased from Beijing Vital River Laboratory Animal Technology Co., Ltd. All animal-related experimental operations and care were performed in accordance with the Guide for the Care and Use of Laboratory Animals and were approved by the Animal Research Ethics Committee of Wenzhou Medical University (wydw2022-0184). All SD rats were kept in an SPF animal laboratory and were provided with adequate feed and water until all rats reached the required body weight for the experiment. […] Eighteen SD rats were randomly and equally divided into three groups of six rats each. Group C rats (long-term administration group) were given 55 mg/kg nirmatrelvir and 20 mg/kg ritonavir by gavage every 12 h for 5 days. Groups B (single dose administration group) and A (control group) were also given the same amount of 0.5% CMC-Na every 12 h for 5 days. Prior to the pharmacokinetic experiments, all rats were fasted for 12 h, but drinking water was not prohibited. On the day of the experiment, 55 mg/kg nirmatrelvir and 20 mg/kg ritonavir were given once by gavage to rats in group B and group C. The same dose of 0.5% CMC-Na was given to group A rats. […] Blood was collected using heparin lithium-anticoagulant tubes and then centrifuged for 10 min at 13,000 rpm at 4°C. Subsequently, the upper plasma fraction was transferred to a clean centrifuge tube and placed in a −80°C refrigerator for storage until detection.
The pharmacokinetic parameters of three groups were analyzed by single factor analysis of variance using SPSS 28.0 software. A p value of less than 0.05 were considered significant difference between the two groups.

[3] = Stability in rat plasma under different storage conditions; type: in vitro ADME; settings: for Stability RE (%), 4°C / Stability RE (%), Room temperature / Stability RE (%), Three freeze-thaw / Stability RE (%), −80°C: rat plasma; for Stability RE (%), 4°C: 4°C (24 h); for Stability RE (%), Room temperature: room temperature (4 h); for Stability in rat plasma: short-term and long-term storage conditions; for Stability RE (%), −80°C: −80°C long-term storage
Description: The stability of the method was assessed through the determination of low, medium and high concentration rat plasma quality control samples under various storage conditions. […] The stability of the samples was determined by the precision of measurement results, and the samples were considered stable when the CV% and RE% were both below 15%.

[4] = set-up: method as in Heng et al., 2021; settings: itraconazole (CYP3A4 inhibitor); clinical study; ref Heng et al., 2021; cited from earlier work
[5] = set-up: method as in Zhu et al., 2021; settings: therapeutic doses of rifampicin (strong CYP3A4 inducer); clinical study; ref Zhu et al., 2021; cited from earlier work
[6] = set-up: method as in earlier work; settings: patients after organ transplantation, ref Prikis and Cameron, 2022, Liu et al., 2023, Michael et al.; cited from earlier work
[7] = ref Nieminen et al., 2010; cited from earlier work
[8] = Group A control: single 7.2 mg/kg firmonertinib by gavage alone
[9] = Group B: single dose 55 mg/kg nirmatrelvir and 20 mg/kg ritonavir, then 7.2 mg/kg firmonertinib by gavage
[10] = Group C: 5 days twice a day 55 mg/kg nirmatrelvir and 20 mg/kg ritonavir, then 7.2 mg/kg firmonertinib by gavage
[11] = rats, long-term (5 days) nirmatrelvir and ritonavir vs firmonertinib monotherapy group
[12] = rats, single dose nirmatrelvir and ritonavir vs firmonertinib monotherapy group
[13] = rats, long-term nirmatrelvir and ritonavir vs firmonertinib monotherapy group

Compound: C#Cc1cccc(Nc2ncnc3cc(OCCOC)c(OCCOC)cc23)c1 [erlotinib]
- Pharmacokinetic exposure of 75 mg erlotinib orally with ritonavir versus 150 mg erlotinib orally [1]: comparable

Compound: C=CC(=O)Nc1cc(Nc2nccc(-c3cn(C)c4ccccc34)n2)c(OCC(F)(F)F)nc1N(C)CCN(C)C [firmonertinib]
- Main metabolizing enzyme (CYP3A4; in vitro experiments, to N-demethylated metabolite AST-5902): metabolized mainly by CYP3A4
- Relation to CYP3A4 (CYP3A4; previous studies): both a substrate and an inducer of CYP3A4
- AUC(0-inf) [2, 8]: 367 ± 89.7 ng·h/mL
- AUC(0-t) [2, 8]: 270 ± 28.4 ng·h/mL
- Cmax [2, 8]: 13.5 ± 4.43 ng/mL
- Tmax [2, 8]: 6.33 ± 1.97 h
- half-life [2, 8]: 39.7 ± 35.7 h
- CL/F [2, 8]: 341 mL/min/kg
- MRT last [2, 8]: 24.5 ± 2.43 h
- MRT inf [2, 8]: 61.8 ± 44.7 h
- Vd/F [2, 8]: 1010 L/kg
- AUC(0-inf) [2, 9]: 486 ± 103 ng·h/mL
- AUC(0-t) [2, 9]: 456 ± 125 ng·h/mL
- Cmax [2, 9]: 27 ± 9.75 ng/mL
- Tmax [2, 9]: 6 ± 2.19 h
- half-life [2, 9]: 16.2 ± 6.77 h
- CL/F [2, 9]: 256 mL/min/kg
- MRT last [2, 9]: 19.2 ± 2.34 h
- MRT inf [2, 9]: 28.4 ± 6.88 h
- Vd/F [2, 9]: 374 ± 209 L/kg
- AUC(0-inf) [2, 10]: 458 ± 46 ng·h/mL
- AUC(0-t) [2, 10]: 421 ± 21.4 ng·h/mL
- Cmax [2, 10]: 27.9 ± 4.22 ng/mL
- Tmax [2, 10]: 5 ± 1.1 h
- half-life [2, 10]: 17.9 ± 5.91 h
- CL/F [2, 10]: 264 mL/min/kg
- MRT last [2, 10]: 19.6 ± 2.48 h
- MRT inf [2, 10]: 30.3 ± 5.96 h
- Vd/F [2, 10]: 400 ± 95.8 L/kg
- Difference in main pharmacokinetic data between single-dose and long-term nirmatrelvir and ritonavir groups ([2]; rats): no significant differences
- AUC(0-t) of firmonertinib increased by [2, 11]: 1.55 times
- CLz/F of firmonertinib decreased by [2, 11]: 23%
- Cmax of firmonertinib increased by [2, 11]: 2.05 times
- MRT(0-t) of firmonertinib decreased by [2, 11]: 20%
- MRT(0-∞) of firmonertinib decreased by [2, 11]: 51%
- Vz/F of firmonertinib decreased by [2, 11]: 61%
- t1/2 of firmonertinib decreased by [2, 11]: 55%
- AUC(0-t) of firmonertinib increased by [2, 12]: 1.68 times
- CLz/F of firmonertinib decreased by [2, 12]: 26%
- Cmax of firmonertinib increased by [2, 12]: 1.99 times
- MRT(0-t) of firmonertinib decreased by [2, 12]: 22%
- MRT(0-∞) of firmonertinib decreased by [2, 12]: 55%
- Vz/F of firmonertinib decreased by [2, 12]: 64%
- t1/2 of firmonertinib decreased by [2, 12]: 60%
- Stability RE (%), 4°C ([3]; 0.3 ng/mL): −4.98%
- Stability RE (%), Room temperature ([3]; 0.3 ng/mL): 7.47%
- Stability RE (%), 4°C ([3]; 40 ng/mL): 2.22%
- Stability RE (%), Room temperature ([3]; 40 ng/mL): −0.57%
- Stability RE (%), 4°C ([3]; 400 ng/mL): −2.90%
- Stability RE (%), Room temperature ([3]; 400 ng/mL): 2.63%
- Stability in rat plasma [3]: remain stable
- Exposure of firmonertinib on co-administration with itraconazole [4]: significantly increases
- Exposure of firmonertinib on co-administration with rifampicin [5]: significantly reduced

Compound: C=CC(=O)Nc1cc(Nc2nccc(-c3cn(C)c4ccccc34)n2)c(OCC(F)(F)F)nc1N(C)CCNC [AST-5902]
- AUC(0-inf) [2, 8]: 405 ± 60.4 ng·h/mL
- AUC(0-t) [2, 8]: 387 ± 58.2 ng·h/mL
- Cmax [2, 8]: 39 ± 2.46 ng/mL
- Tmax [2, 8]: 5.33 ± 1.03 h
- half-life [2, 8]: 4.94 ± 0.98 h
- CL/F [2, 8]: 302 mL/min/kg
- MRT last [2, 8]: 8.37 ± 0.39 h
- MRT inf [2, 8]: 9.35 ± 0.4 h
- Vd/F [2, 8]: 129 ± 35.5 L/kg
- AUC(0-inf) [2, 9]: 185 ± 147 ng·h/mL
- AUC(0-t) [2, 9]: 122 ± 15 ng·h/mL
- Cmax [2, 9]: 9.79 ± 1.7 ng/mL
- Tmax [2, 9]: 8.33 ± 2.94 h
- half-life [2, 9]: 6.14 ± 4.31 h
- CL/F [2, 9]: 851 mL/min/kg
- MRT last [2, 9]: 8.94 ± 0.62 h
- MRT inf [2, 9]: 8.73 ± 2.41 h
- Vd/F [2, 9]: 362 ± 62.9 L/kg
- AUC(0-inf) [2, 10]: 125 ± 13.2 ng·h/mL
- AUC(0-t) [2, 10]: 122 ± 12.8 ng·h/mL
- Cmax [2, 10]: 10.2 ± 1.42 ng/mL
- Tmax [2, 10]: 8.67 ± 1.63 h
- half-life [2, 10]: 3.65 ± 0.58 h
- CL/F [2, 10]: 969 mL/min/kg
- MRT last [2, 10]: 9.22 ± 0.19 h
- MRT inf [2, 10]: 9.7 ± 0.33 h
- Vd/F [2, 10]: 306 ± 56.7 L/kg
- Difference in main pharmacokinetic data between single-dose and long-term nirmatrelvir and ritonavir groups ([2]; rats): no significant differences
- AUC(0-∞) of AST-5902 decreased by [2, 13]: 70%
- CLz/F of AST-5902 increased by [2, 13]: 3.2 times
- Cmax of AST-5902 decreased by [2, 13]: 74%
- Tmax of AST-5902 increased by [2, 13]: 1.62 times
- Vz/F of AST-5902 increased by [2, 13]: 2.36 times
- AUC(0-∞) of AST-5902 decreased by [2, 12]: 55%
- CLz/F of AST-5902 increased by [2, 12]: 2.81 times
- Cmax of AST-5902 decreased by [2, 12]: 75%
- Tmax of AST-5902 increased by [2, 12]: 1.56 times
- Vz/F of AST-5902 increased by [2, 12]: 2.79 times
- AUC(0-t) of AST-5902 decreased by ([2]; rats, single-dose and long-term nirmatrelvir and ritonavir groups vs firmonertinib monotherapy group): 69%
- Stability RE (%), 4°C ([3]; AST-5902 table, 0.2 ng/mL): −1.94%
- Stability RE (%), Room temperature ([3]; AST-5902 table, 0.2 ng/mL): 4.37%
- Stability RE (%), Three freeze-thaw ([3]; AST-5902 table, 0.2 ng/mL): 1.93%
- Stability RE (%), −80°C ([3]; AST-5902 table, 0.2 ng/mL): 0.97%
- Stability RE (%), 4°C ([3]; AST-5902 table, 5 ng/mL): −1.36%
- Stability RE (%), Room temperature ([3]; AST-5902 table, 5 ng/mL): 1.25%
- Stability RE (%), Three freeze-thaw ([3]; AST-5902 table, 5 ng/mL): 5.50%
- Stability RE (%), −80°C ([3]; AST-5902 table, 5 ng/mL): 3.06%
- Stability RE (%), 4°C ([3]; AST-5902 table, 40 ng/mL): 0.00%
- Stability RE (%), Room temperature ([3]; AST-5902 table, 40 ng/mL): 0.31%
- Stability RE (%), Three freeze-thaw ([3]; AST-5902 table, 40 ng/mL): −0.91%
- Stability RE (%), −80°C ([3]; AST-5902 table, 40 ng/mL): −0.53%
- Stability in rat plasma [3]: remain stable

Compound: C=CC[C@@H]1/C=C(\C)C[C@H](C)C[C@H](OC)[C@H]2O[C@@](O)(C(=O)C(=O)N3CCCC[C@H]3C(=O)O[C@H](/C(C)=C/[C@@H]3CC[C@@H](O)[C@H](OC)C3)[C@H](C)[C@@H](O)CC1=O)[C@H](C)C[C@@H]2OC [tacrolimus]
- Concentration of tacrolimus during Paxlovid treatment [6]: increase significantly

Compound: COc1ccc2c3c1O[C@H]1C(=O)CC[C@@]4(O)[C@@H](C2)N(C)CC[C@]314 [oxycodone]
- AUC of oxycodone when administered simultaneously with ritonavir [7]: triples

Reference: publication PMC12104055 (Frontiers in Pharmacology, 2025)
